Source: patent publication US9458104B2 (priority 2012, dated 2016)

Legend:
[1] = target: T1, RORγ ligand binding domain (LBD) (Homo sapiens, UniProt P51449); assay: TR-FRET Activity Assay (ligand sensing assay, RORγ-LBD / coactivator peptide interaction); type: biochemical
T1 construct: made in house; host or cells: E. coli BL-21 (BL3), vector pDEST15
T1 sequence (P51449 269-508 limits assumed): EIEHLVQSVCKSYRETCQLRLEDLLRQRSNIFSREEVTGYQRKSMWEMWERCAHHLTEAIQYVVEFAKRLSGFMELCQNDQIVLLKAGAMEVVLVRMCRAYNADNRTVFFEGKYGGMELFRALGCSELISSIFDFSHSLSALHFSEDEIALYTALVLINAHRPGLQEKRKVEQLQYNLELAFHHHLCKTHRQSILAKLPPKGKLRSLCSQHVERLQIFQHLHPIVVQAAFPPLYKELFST
From the text: This method measures the ability of putative ligands to modulate the interaction between the purified bacterial expressed RORγ ligand binding domain (LBD) and synthetic N-terminally biotinylated peptides which are derived from nuclear receptor coactivator proteins such as but not limited to SRC1 (NcoA1), SRC2 (NcoA2, TIF2), SRC3 (NcoA3), PGC1α, PGC1β, CBP, GRIP1, TRAP220, RIP140.
The ligand-binding domain (LBD) of RORγ was expressed as fusion protein with GST in […] cells using the vector pDEST15. Cells were lysed by lysozyme-treatment and sonication, and the fusion proteins purified over glutathione sepharose (Pharmacia) according to the manufacturers instructions. For screening of compounds for their influence on the RORγ-peptide interaction, the LANCE technology (Perkin Elmer) was applied. This method relies on the binding dependent energy transfer from a donor to an acceptor fluorophor attached to the binding partner of interest. For ease of handling and reduction of background from compound fluorescence LANCE technology makes use of generic fluorophore labels and time resolved detection assays were done in a final volume of 25 μL in a 384 well plate, in a Tris-based buffer system (20 mM Tris-HCl pH6.8; 60 mM KCl, 1 mM DTT; 5 mM MgCl2; 35 ng/μL BSA), containing 20-60 ng/well recombinantly expressed RORγ-LBD fused to GST, 200-600 nM N-terminally biotinylated peptide, 200 ng/well Streptavidin-xIAPC conjugate (Prozyme) and 6-10 ng/well Eu W1024-antiGST (Perkin Elmer). DMSO content of the samples was kept at 1%.
After generation of the Tris-based buffer system, the potentially RORγ modulating ligands were diluted. […] The LANCE signal was detected by a Perkin Elmer EnVision™ Multilabel Counter. The results were visualized by plotting the ratio between the emitted light at 665 nm and 615 nm. […] Ligands that promote the complex formation induce a concentration-dependent increase in time-resolved fluorescent signal.
To assess the antagonistic potential of the compounds, IC50 values were determined using a Ligand Sensing Assay based on Time-resolved Fluorescence Energy Transfer (TR-FRET) as described above. The normalised TR-FRET assay values, using the following equation: 1000*665 nm measurement value/615 nm measurement value, were transferred to the program GraphPad Prism to generate graphs and dose response curves using the following equation: […]
This is identical to the “four parameter logistic equation”. The IC50 values are calculated using this equation. […] Is is understood that the data illustrated below may have reasonable variation depending on the specific conditions and procedures used by the person conducting the test.

RORγ = target: T2, RORγ (UniProt P51449); type: cell-based; details: 293T cells, 16 h; for pIC50 (FF): firefly (FF) luciferase; for pIC50 (REN): renilla normalised (RENnorm) luciferase
T2 construct: hRORg-LBD|aa259-518|NP_005051.2; hRORgt|aa1-497|NP_001001523 (RORg, t isoform, 497aa); mRORg-LBD|aa264-516|NP_035411
T2 sequence (P51449 1-518): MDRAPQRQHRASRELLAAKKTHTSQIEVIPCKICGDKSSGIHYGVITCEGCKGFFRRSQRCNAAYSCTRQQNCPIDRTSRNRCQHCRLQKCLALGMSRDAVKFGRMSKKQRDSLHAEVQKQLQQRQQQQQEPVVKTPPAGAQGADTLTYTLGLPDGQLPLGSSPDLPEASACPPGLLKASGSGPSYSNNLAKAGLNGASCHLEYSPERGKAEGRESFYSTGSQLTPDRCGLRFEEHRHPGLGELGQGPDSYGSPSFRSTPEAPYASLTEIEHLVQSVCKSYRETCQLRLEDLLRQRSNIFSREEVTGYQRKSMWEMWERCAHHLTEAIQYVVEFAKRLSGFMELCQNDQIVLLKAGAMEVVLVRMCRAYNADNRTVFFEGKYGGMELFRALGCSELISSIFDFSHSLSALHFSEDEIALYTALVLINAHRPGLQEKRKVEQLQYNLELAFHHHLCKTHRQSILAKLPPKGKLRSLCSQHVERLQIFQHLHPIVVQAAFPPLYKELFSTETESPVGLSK
Protocol: Determination of a ligand mediated Gal4 promoter driven transactivation to quantify ligand binding to RORγ was performed as follows: DNA encoding three different RORγ. protein fragments was cloned into vector pCMV-BD (Stratagene). Expression was under control of a CMV promoter and as fusion to the DNA-binding domain of the yeast protein GAL4. Other vectors used were pFR-Luc (Stratagene) as regulated reporter plasmid. pFR-Luc contains a synthetic promoter with five tandem repeats of the yeast GAL4 binding sites that control expression of the Photinus pyralis (American firefly) luciferase gene. In order to improve experimental accuracy the plasmid pRL-CMV was cotransfected. pRL-CMV contains the constitutive CMV promoter, controlling the expression of the Renilla reniformis luciferase.
All Gal4 reporter gene assays were done in 293T cells (DSMZ (German Collection of Microorganisms and Cell Cultures), Braunschweig, Germany, ACC635) grown in Minimum Essential Medium (MEM) with Phenol Red. The medium is supplemented with 10% fetal bovine serum, 0.1 mM nonessential amino acids, 1 mM sodium pyruvate, 1% Glutamax and 100 units Penicilin/[…] per mL at 37° C. in 5% CO2.
For the assay, […] were plated per well in 96 well plates in 100 μL per well, incubated over night at 37° C. in 5% CO2. The following day, medium was discarded and the cells were transiently transfected using 20 μL per well of a OptiMEM—PEI-based transfection-reagent (Sigma-Aldrich, 408727) including the three plasmids described above. About 4 h after addition of the transfection solution, fresh Minimal Essential Medium (MEM, same composition as used for plating cells, but without serum) was added. Then compound stocks, prediluted in MEM (same composition as used for plating cells) were added (final vehicle concentration not exceeding 0.1%).
All experiments were done at least in triplicates.
It is understood that the data illustrated below may have reasonable variation depending on the specific conditions and procedures used by the person conducting the test.

Compound	IC50 [1]	pIC50 (FF) (RORγ)	pIC50 (REN) (RORγ)
Cn1c(C(=O)N[C@H]2CC[C@H](C(=O)O)CC2)cc(-c2cc(C(C)(C)C)cc(C3(C)CC3)c2)c1CC1CCCCC1 [8/11]	1260 nM	7.3	7.4
Cn1c(C(=O)NC23CCC(C(=O)O)(CC2)C3)cc(-c2cc(C(C)(C)C)cc(C3(C)CC3)c2)c1CC1CCCCC1 [8/12]	1000 nM	7.7	7.8
Cn1c(C(=O)NCC(C)(C)C(=O)O)cc(-c2cc(C(C)(C)C)cc(C3(C)CC3)c2)c1CC1CCCCC1 [8/13]	2510 nM	7.4	7.6
Cn1c(C(=O)NC23CCC(C(=O)O)(CC2)CC3)cc(-c2cc(C(C)(C)C)cc(C3(C)CC3)c2)c1CC1CCCCC1 [8/14]	2000 nM	7.4	7.6
Cn1c(C(=O)N2CC(C(C)(C)C(=O)O)C2)cc(-c2cc(C(C)(C)C)cc(C3(C)CC3)c2)c1CC1CCCCC1 [8/15]	2000 nM	7.2	7.4
Cn1c(C(=O)N2CCC(C)(C(=O)O)CC2)cc(-c2cc(C(C)(C)C)cc(C3(C)CC3)c2)c1CC1CCCCC1 [8/16]	1580 nM	7.5	7.6
C[C@H](NC(=O)c1cc(-c2cc(C(=O)N[C@H]3C[C@H](C(=O)O)C3)n(C)c2CC2CCCCC2)cc(C2(C)CC2)c1)C(F)(F)F [8/17]	1000 nM	7.7	7.9
Cn1c(C(=O)N[C@H]2C[C@H](C(=O)O)C2)cc(-c2cc(C(C)(C)C)nc(C3(C)CC3)n2)c1CC1CCCCC1 [8/18]	794 nM	6.7	6.7
Cn1c(C(=O)N[C@H]2C[C@H](C(=O)O)C2)cc(-c2cc(C(C)(C)C)nc(C(C)(C)C)n2)c1CC1CCCCC1 [8/19]	794 nM	6.8	6.8
Cn1c(C(=O)NC2CCOCC2)cc(CC2CCCCC2)c1-c1cc(C(C)(C)C)cc(C2(C)CC2)c1 [19/2]	501 nM	6.9	6.9
CC(C)(C)c1cc(-c2cc(C(=O)NC3CCOCC3)nn2CC2CCCCC2)cc(C2(C)CC2)c1 [100/1]	79.4 nM	7.3	7.4
CC(C)(C)NS(=O)(=O)c1ccc(-c2cc(C(=O)NC3CCOCC3)nn2CC2CCCCC2)cc1C(C)(C)C [100/2]	794 nM	7.3	7.4
CC(C)(C)NS(=O)(=O)c1ccc(-c2cc(C(=O)N[C@H]3C[C@H](C(=O)O)C3)nn2CC2CCCCC2)cc1C(C)(C)C [100/3]	794 nM	7.0	7.1
CC(C)(C)NS(=O)(=O)c1ccc(-c2cc(C(=O)NCCC(C)(C)C(=O)O)nn2CC2CCCCC2)cc1C(C)(C)C [100/4]	2000 nM	6.6	6.7
CC(C)(C)NS(=O)(=O)c1ccc(-c2cc(C(=O)NC3CCOCC3)nn2CC2CCCCC2)cc1C(F)(F)F [100/5]	501 nM	7.1	7.2
CC(C)(C)NS(=O)(=O)c1ccc(-c2cc(C(=O)N[C@H]3C[C@H](C(=O)O)C3)nn2CC2CCCCC2)cc1C(F)(F)F [100/6]	316 nM	6.3	6.3
CC(C)(C)NS(=O)(=O)c1ccc(-c2cc(C(=O)NCCC(C)(C)C(=O)O)nn2CC2CCCCC2)cc1C(F)(F)F [100/7]	1260 nM	6.2	6.3
CC(C)NC(=O)c1cc(CC2CCCCC2)n(-c2cc(C(C)(C)C)cc(C(C)(C)C)c2)n1 [102/2]	631 nM	< 4.7	< 4.7
Cc1cc(-n2nc(C(=O)NC3CC3)cc2CC2CCCCC2)cc(C(C)(C)C)c1 [102/3]	3160 nM	5.7	6.1
CC(C)(C)c1cc(-n2nc(C(=O)NC3CCOCC3)c(Cl)c2CC2CCCCC2)cc(C(C)(C)C)c1 [103/2]	316 nM	6.3	6.4
CC(C)(O)CNC(=O)c1nn(-c2cc(C(C)(C)C)cc(C(C)(C)C)c2)c(CC2CCCCC2)c1Cl [103/5]	316 nM	6.2	6.3
CC(C)(C)c1cc(-n2nc(C(=O)NCc3ccno3)c(Cl)c2CC2CCCCC2)cc(C(C)(C)C)c1 [103/6]	631 nM	6.1	6.2
CC(C)(C)c1cc(-n2nc(C(=O)NCc3cnco3)c(Cl)c2CC2CCCCC2)cc(C(C)(C)C)c1 [103/7]	251 nM	6.3	6.3
CC(C)(C)c1cc(-n2nc(C(=O)NCc3ccn[nH]3)c(Cl)c2CC2CCCCC2)cc(C(C)(C)C)c1 [103/8]	794 nM	< 4.7	< 4.7
COC(C)(C)c1cc(-n2nc(C(=O)NC3COC3)c(Cl)c2CC2CCCCC2)cc(C(C)(C)C)c1 [104/4]	631 nM	6.6	6.6
CC(C)(C)NS(=O)(=O)c1ccc(-c2cc(C(=O)NC34CCC(C(=O)O)(CC3)CC4)nn2CC2CCCCC2)c(Cl)c1Cl [112/2]	794 nM	6.9	7.0
Cc1c(C(=O)NC2CCOCC2)cc(-c2ccc(S(=O)(=O)NC(C)(C)C)c(C(F)(F)F)c2)n1CC(C)(C)C [302/2]	5010 nM	6.1	6.1
Cc1c(C(=O)NC2CCOCC2)cc(-c2ccc(S(=O)(=O)NC(C)(C)C)c(C(F)(F)F)c2)n1CC1COC1 [302/3]	15800 nM	6.3	6.2
